Test results taken from patent US20230414599A1, “NICOTINAMIDE, NICOTINAMIDE PRECURSORS AND NICOTINAMIDE METABOLITES AND COMPOSITIONS THEREOF FOR REDUCING THE TIME TO RESOLUTION OF SYMPTOMS IN PATIENTS WITH COVID-19 AND OTHER VIRAL INFECTIONS” (CONARIS RESEARCH INSTITUTE AG, priority 2020, published 2023).
Read-outs that look alike come from different tables or passages of the source.

Test system: COVID-19
Details: for Cough complaint scale, mean / Cough complaint scale, median / Change in cough complaint scale, mean / Change in cough complaint scale, median: n = 36; for Ability to perform normal activities, complaint scale 0-6, mean change / Ability to perform normal activities, complaint scale 0-6, median change: week 4 - baseline
[1] = baseline, BMI ≥30.0 or type 2 diabetes, n = 27
[2] = baseline, current or former smokers, n = 75
[3] = baseline, patients with cough and fever, n = 15
[4] = baseline, patients with cough, n = 106
[5] = baseline, patients with fever, n = 21
[6] = baseline, ≥1 risk factor for severe COVID-19, n = 117
[7] = patients with cough and taste loss, baseline
[8] = patients with cough and taste loss, week 2
[9] = patients with cough and taste loss, week 2 - baseline
[10] = patients with cough and taste loss, week 4
[11] = patients with cough and taste loss, week 6
[12] = patients with cough and taste loss, week 6 - baseline
[13] = patients with cough, fever and taste loss, n = 6, week 4 compared to baseline
[14] = patients with cough, fever and taste loss, n = 6, week 6 compared to baseline
[15] = patients with fever and taste loss, n = 8, week 4 compared to baseline
[16] = patients with fever and taste loss, n = 8, week 6 compared to baseline
[17] = week 2 - baseline, BMI ≥30.0 or type 2 diabetes, n = 27, 500 mg IR + 500 mg CICR-NAM daily
[18] = week 2, BMI ≥30.0 or type 2 diabetes, n = 27, 500 mg IR + 500 mg CICR-NAM daily
[19] = week 2, current or former smokers, n = 75, 500 mg IR + 500 mg CICR-NAM daily
[20] = week 2, patients with cough and fever, n = 15, 500 mg IR + 500 mg CICR-NAM daily
[21] = week 2, patients with cough, n = 106, 500 mg IR + 500 mg CICR-NAM daily
[22] = week 2, patients with fever, n = 21, 500 mg IR + 500 mg CICR-NAM daily
[23] = week 2, ≥1 risk factor for severe COVID-19, n = 117, 500 mg IR + 500 mg CICR-NAM daily
[24] = BMI ≥30.0 or type 2 diabetes, n = 27, 500 mg IR + 500 mg CICR-NAM daily
[25] = patients with cough and fever, n = 15, 500 mg IR + 500 mg CICR-NAM daily
[26] = patients with cough, n = 106, 500 mg IR + 500 mg CICR-NAM daily
[27] = patients with fever, n = 21, 500 mg IR + 500 mg CICR-NAM daily
[28] = week 4, BMI ≥30.0 or type 2 diabetes, n = 27, 500 mg IR + 500 mg CICR-NAM daily
[29] = week 4, current or former smokers, n = 75, 500 mg IR + 500 mg CICR-NAM daily

Structure (SMILES): NC(=O)c1cccnc1 [Nicotinamide, nicotinamide]
- Ability to perform normal activities, complaint scale 0-6, mean [1]: 3.037
- Ability to perform normal activities, complaint scale 0-6, median [1]: 3.000
- Cough complaint scale 0-6, mean [1]: 3.000
- Cough complaint scale 0-6, median [1]: 3.000
- Ability to perform normal activities, complaint scale 0-6, mean [2]: 3.373
- Ability to perform normal activities, complaint scale 0-6, median [2]: 4.000
- Ability to perform normal activities, complaint scale 0-6, mean [3]: 4.000
- Ability to perform normal activities, complaint scale 0-6, median [3]: 4.0
- Ability to perform normal activities, complaint scale 0-6, mean [4]: 2.915
- Ability to perform normal activities, complaint scale 0-6, median [4]: 3.0
- Ability to perform normal activities, complaint scale 0-6, mean [5]: 4.000
- Ability to perform normal activities, complaint scale 0-6, median [5]: 4.0
- Ability to perform normal activities, complaint scale 0-6, mean [6]: 3.188
- Ability to perform normal activities, complaint scale 0-6, median [6]: 3.0
- Cough complaint scale vs placebo (Table 7.1) (patients with cough and taste loss): significant difference found in favour of placebo
- Cough complaint scale, mean [7]: 2.194
- Cough complaint scale, median [7]: 2.0
- Cough complaint scale, mean [8]: 0.917
- Cough complaint scale, median [8]: 0.0
- Change in cough complaint scale, mean [9]: −1.287
- Change in cough complaint scale, median [9]: −1.0
- Cough complaint scale, mean [10]: 0.639
- Cough complaint scale, median [10]: 0.0
- Cough complaint scale, mean [11]: 0.417
- Cough complaint scale, median [11]: 0.0
- Change in cough complaint scale, mean [12]: −1.778
- Change in cough complaint scale, median [12]: −2.0
- Change in fatigue: constant, number of patients [13]: 1
- Change in fatigue: improved, % [13]: 83.33%
- Change in fatigue: improved, number of patients [13]: 5
- Change in fatigue: worse, % [13]: 0.00%
- Change in fatigue: worse, number of patients [13]: 0
- Change in fatigue: constant, number of patients [14]: 2
- Change in fatigue: improved, % [14]: 66.67%
- Change in fatigue: improved, number of patients [14]: 4
- Change in fatigue: worse, % [14]: 0.00%
- Change in fatigue: worse, number of patients [14]: 0
- Change in fatigue: constant, number of patients [15]: 1
- Change in fatigue: improved, % [15]: 87.50%
- Change in fatigue: improved, number of patients [15]: 7
- Change in fatigue: worse, % [15]: 0.00%
- Change in fatigue: worse, number of patients [15]: 0
- Change in fatigue: constant, number of patients [16]: 2
- Change in fatigue: improved, % [16]: 75.00%
- Change in fatigue: improved, number of patients [16]: 6
- Change in fatigue: worse, % [16]: 0.00%
- Change in fatigue: worse, number of patients [16]: 0
- Effect on the ability to perform normal activities, fatigue and reduced physical performance (patients with ≥1 risk factor for severe COVID-19, futility analysis): biologically and statistically significant positive effect
- Cough complaint scale 0-6, mean change [17]: −1.815
- Cough complaint scale 0-6, median change [17]: −2.000
- Ability to perform normal activities, complaint scale 0-6, mean [18]: 1.556
- Ability to perform normal activities, complaint scale 0-6, median [18]: 1.000
- Cough complaint scale 0-6, mean [18]: 1.185
- Cough complaint scale 0-6, median [18]: 1.000
- Ability to perform normal activities, complaint scale 0-6, mean [19]: 1.093
- Ability to perform normal activities, complaint scale 0-6, median [19]: 0.000
- Presence of cough constant vs baseline, % of patients [19]: 60.00%
- Presence of cough constant vs baseline, patients [19]: 45
- Presence of cough improved vs baseline, % of patients [19]: 36.00%
- Presence of cough improved vs baseline, patients [19]: 27
- Presence of cough worse vs baseline, % of patients [19]: 4.00%
- Presence of cough worse vs baseline, patients [19]: 3
- Ability to perform normal activities, complaint scale 0-6, mean [20]: 1.733
- Ability to perform normal activities, complaint scale 0-6, median [20]: 2.0
- Ability to perform normal activities, complaint scale 0-6, mean [21]: 1.226
- Ability to perform normal activities, complaint scale 0-6, median [21]: 1.0
- Ability to perform normal activities, complaint scale 0-6, mean [22]: 1.381
- Ability to perform normal activities, complaint scale 0-6, median [22]: 1.0
- Ability to perform normal activities, complaint scale 0-6, mean [23]: 1.299
- Ability to perform normal activities, complaint scale 0-6, median [23]: 1.0
- Fatigue constant vs baseline, % of patients [23]: 57.26%
- Fatigue constant vs baseline, patients [23]: 67
- Fatigue improved vs baseline, % of patients [23]: 40.17%
- Fatigue improved vs baseline, patients [23]: 47
- Fatigue worse vs baseline, % of patients [23]: 2.56%
- Fatigue worse vs baseline, patients [23]: 3
- Ability to perform normal activities, complaint scale 0-6, mean change [24]: −1.667
- Ability to perform normal activities, complaint scale 0-6, median change [24]: −2.000
- Ability to perform normal activities, complaint scale 0-6, mean change [25]: −2.800
- Ability to perform normal activities, complaint scale 0-6, median change [25]: −3.0
- Ability to perform normal activities, complaint scale 0-6, mean change [26]: −2.179
- Ability to perform normal activities, complaint scale 0-6, median change [26]: −2.0
- Ability to perform normal activities, complaint scale 0-6, mean change [27]: −2.952
- Ability to perform normal activities, complaint scale 0-6, median change [27]: −3.0
- Ability to perform normal activities constant vs baseline, % of patients [28]: 14.81%
- Ability to perform normal activities constant vs baseline, patients [28]: 4
- Ability to perform normal activities improved vs baseline, % of patients [28]: 74.07%
- Ability to perform normal activities improved vs baseline, patients [28]: 20
- Ability to perform normal activities worse vs baseline, % of patients [28]: 11.11%
- Ability to perform normal activities worse vs baseline, patients [28]: 3
- Ability to perform normal activities, complaint scale 0-6, mean [28]: 1.370
- Ability to perform normal activities, complaint scale 0-6, median [28]: 1.000
- Cough complaint scale 0-6, mean [28]: 0.815
- Cough complaint scale 0-6, median [28]: 0.000
- Ability to perform normal activities constant vs baseline, % of patients [29]: 9.33%
- Ability to perform normal activities constant vs baseline, patients [29]: 7
- Ability to perform normal activities improved vs baseline, % of patients [29]: 84.00%
- Ability to perform normal activities improved vs baseline, patients [29]: 63
